The record followed here is Sander's compilation of Henry's law constants (doi:10.1021/ac00058a023).

A short description of this data set: Henry solubility constant Hcp at 298.15 K (mol/(m3 Pa)). Particulars: reference: Li and Carr (1993).
As for `ClC(Cl)C(Cl)Cl` [1,1,2,2-tetrachloroethane], the “Henry solubility constant Hcp” value is 0.029.

In the case of `Cc1ccccc1C` [1,2-dimethylbenzene], the “Henry solubility constant Hcp” value is 0.0019.

Take `CCO` [ethanol]: the “Henry solubility constant Hcp” value came out at 1.9.

Take `CC(C)OC(C)C` [diisopropyl ether]: the “Henry solubility constant Hcp” value came out at 0.0042.

`CCCO` [1-propanol]: the “Henry solubility constant Hcp” value is 1.4.

On to `ClC(Cl)(Cl)Cl` [tetrachloromethane], for which the “Henry solubility constant Hcp” value was found to be 0.00023.

With `CC(C)c1ccccc1` [(2-propyl)-benzene], the “Henry solubility constant Hcp” value worked out at 0.00091.

As for `CCCc1ccccc1` [propylbenzene], the “Henry solubility constant Hcp” value was determined as 0.00093.

On to `COc1ccccc1` [methoxybenzene], for which the “Henry solubility constant Hcp” value amounted to 0.032.

Regarding `CC(C)C#N` [2-methylpropanenitrile], the “Henry solubility constant Hcp” value turned out to be 0.094.

Regarding `Cc1cccc([N+](=O)[O-])c1` [3-nitrotoluene], the “Henry solubility constant Hcp” value stood at 0.28.

As to `CCOc1ccccc1` [ethoxybenzene], the “Henry solubility constant Hcp” value came out at 0.017.

As to `CC#N` [ethanenitrile], the “Henry solubility constant Hcp” value came out at 0.46.

Regarding `CCCCc1ccccc1` [butylbenzene], the “Henry solubility constant Hcp” value stood at 0.00071.

As for `Clc1ccccc1` [chlorobenzene], the “Henry solubility constant Hcp” value is 0.0025.

As to `ClCc1ccccc1` [(chloromethyl)-benzene], the “Henry solubility constant Hcp” value came to 0.012.

For the molecule `CCc1ccccc1` [ethylbenzene], the “Henry solubility constant Hcp” value was 0.0013.

Turning to `CCCCCCCC(C)=O` [2-nonanone], the “Henry solubility constant Hcp” value stood at 0.041.

Turning to `Cc1cc(C)cc(C)c1` [1,3,5-trimethylbenzene], the “Henry solubility constant Hcp” value is 0.0013.

As to `Brc1ccccc1` [bromobenzene], the “Henry solubility constant Hcp” value was 0.0044.

Regarding `Cc1ccc(C)cc1` [1,4-dimethylbenzene], the “Henry solubility constant Hcp” value was 0.0013.

For the molecule `CCCCC#N` [pentanenitrile], the “Henry solubility constant Hcp” value worked out at 0.14.

For the molecule `c1ccccc1` [benzene], the “Henry solubility constant Hcp” value is 0.0017.

On to `Fc1ccccc1` [fluorobenzene], for which the “Henry solubility constant Hcp” value worked out at 0.0011.

Turning to `CCCOCCC` [dipropyl ether], the “Henry solubility constant Hcp” value is 0.003.

For the molecule `Cc1cccc(C)c1` [1,3-dimethylbenzene], the “Henry solubility constant Hcp” value was determined as 0.0013.

Regarding `CCCCCCO` [1-hexanol], the “Henry solubility constant Hcp” value stood at 0.64.

Turning to `CCCCCO` [1-pentanol], the “Henry solubility constant Hcp” value was determined as 0.84.

`Cc1ccccc1` [methylbenzene]: the “Henry solubility constant Hcp” value came out at 0.0016.

Take `Ic1ccccc1` [iodobenzene]: the “Henry solubility constant Hcp” value was determined as 0.0076.

For the molecule `CCCCCCCC=O` [octanal], the “Henry solubility constant Hcp” value came to 0.021.
